Experimental data: patent US12077555B2, “STAT degraders and uses thereof” (Kymera Therapeutics, Inc., priority 2019, dated 2024)

Biological target: STAT3 (Homo sapiens, UniProt P40763)
Assay: Quantitation of STAT3 degradation in A549 cells by Western blot
Type: cell-based
Set-up: expressed in transfected cells; host or cells: A549
Conditions: 24 hours, tested up to 30 μM or 10 μM, read-out: A549 DC50
Description: Degradation of total cellular STAT3 protein in A549 was quantitatively measured using SDS-PAGE and Western blot analysis. A549 cells (5×10^5 cells/well, 2 mL) were seeded into 6-well plates and were incubated in the incubator under 5% CO2 overnight to reach ˜80% confluency. The next day, the culture medium was changed with 1 ml fresh media. Then, 1 mL of media containing 2× compound solution was added into the well to make the final concentration of 30 μM, 10 μM, 3 μM, 1 μM, 0.3 μM and 0 μM (DMSO). The media was thoroughly mixed and incubated for 24 hours at 37° C. under 5% CO2. Then, the culture media was removed from the assay plates and the cells were washed with ice-cold PBS twice. To prepare cell lysates, 200 ul pre-chilled RIPA lysis buffer (Boston BioProducts BP-115D) with protease/phosphatase inhibitor (Roche 05892791001/Roche 04906837001) was added directly into the well to lyse the cells for 20 minutes on ice. The cell lysates were then transferred to centrifuge tubes. Insoluble part of lysates was removed by centrifuging the lysates at 13000 rpm for 20 minutes. The supernatant was then collected and mixed with 5× loading buffer (Beyotime Bio P0015) to make the final samples for SDS-PAGE analysis. The samples were heated at 100° C. for 10 minutes and cool to room temperature before centrifuging at 13000 rpm for 20 minutes. To analyze the samples by SDS-PAGE, 10 ul samples were loaded onto SDS-PAGE gel (Novex, WG1403BOX) and the SDS-PAGE gel was run for 20 minutes at 80 V, then at 120 V for 1.5 hours. The SDS-PAGE gel was then transferred to nitrocellulose membrane using the wet-transfer method at 250 mA for 1.5 hours. The membrane was then blocked with LI-COR blocking buffer (LI-COR, 927-50000) for 1 hour and was probed with primary antibody (mouse anti-STAT3 (124H6) (CST #91395) 1:2000 or mouse anti-beta-Actin (8H10D10) (CST #3700) 1:10000) at 4° C. overnight. The membrane was then washed three times with TBST buffer and probed with secondary antibody (anti-mouse IgG (LI-COR, 926-68070), 1:5000) for 1 hour at room temperature. The membrane was then scanned on a LI-COR Odyssey instrument and was quantified using Image Studio Version 5.2. Concentration at 50% degradation (DC50) was calculated by fitting dose dependent degradation data using a sigmoidal equation using GraphPad Prism Version 8.0.

STAT3, sequence (P40763 whole entry): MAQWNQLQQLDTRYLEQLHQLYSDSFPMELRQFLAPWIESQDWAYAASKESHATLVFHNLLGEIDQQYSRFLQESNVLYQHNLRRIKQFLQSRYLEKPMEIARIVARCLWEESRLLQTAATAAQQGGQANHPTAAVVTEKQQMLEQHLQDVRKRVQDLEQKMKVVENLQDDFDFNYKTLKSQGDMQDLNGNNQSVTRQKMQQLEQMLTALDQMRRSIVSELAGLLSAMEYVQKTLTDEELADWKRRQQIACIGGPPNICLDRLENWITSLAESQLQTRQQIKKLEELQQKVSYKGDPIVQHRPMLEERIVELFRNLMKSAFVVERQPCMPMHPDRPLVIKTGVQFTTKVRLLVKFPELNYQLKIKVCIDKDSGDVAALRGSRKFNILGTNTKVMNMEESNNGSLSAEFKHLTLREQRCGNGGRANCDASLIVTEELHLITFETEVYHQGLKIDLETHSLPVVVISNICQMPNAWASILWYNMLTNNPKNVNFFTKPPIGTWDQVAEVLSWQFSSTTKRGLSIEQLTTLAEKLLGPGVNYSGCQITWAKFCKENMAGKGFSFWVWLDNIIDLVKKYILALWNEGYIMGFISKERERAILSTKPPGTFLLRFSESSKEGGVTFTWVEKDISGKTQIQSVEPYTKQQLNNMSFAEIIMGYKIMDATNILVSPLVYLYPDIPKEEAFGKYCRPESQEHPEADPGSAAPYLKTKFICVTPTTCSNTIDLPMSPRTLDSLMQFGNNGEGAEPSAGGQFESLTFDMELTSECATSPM

Q: `C/C(=C\C(=O)N[C@H]1CCc2cccc3c2N(C1=O)[C@H](C(=O)N[C@@H](CCC(N)=O)[C@@H](C)OCc1ccc(CCOCC(=O)N[C@H](C(=O)N2C[C@H](O)C[C@H]2C(=O)NCc2ccc(-c4scnc4C)cc2)C(C)(C)C)cc1)C3)c1ccc(C(F)(F)P(=O)(OCOC(=O)C(C)(C)C)OCOC(=O)C(C)(C)C)cc1` [Compound I-13] was tested. Which DC50 did it give?
A: Its DC50 is less than 30 µM.

Q: For `C/C(=C\C(=O)N[C@H]1CCc2cccc3c2N(C1=O)[C@H](C(=O)N[C@@H](CCC(N)=O)[C@@H](C)OCc1ccc(CCCOCCOCCOCCOCCOc2cc(-c4scnc4C)ccc2CNC(=O)[C@@H]2C[C@@H](O)CN2C(=O)[C@@H](NC(=O)C2(F)CC2)C(C)(C)C)cc1)C3)c1ccc(C(F)(F)P(=O)(OCOC(=O)C(C)(C)C)OCOC(=O)C(C)(C)C)cc1` [Compound I-16], which DC50 is on record?
A: Its DC50 is greater than 30 µM.

Same assay, conditions: read-out: A549 DC50, 24 hours, tested up to 30 μM or 10 μM

Q: For `C/C(=C\C(=O)N[C@H]1CCc2cccc3c2N(C1=O)[C@H](C(=O)N[C@@H](CCC(N)=O)[C@@H](C)OCc1ccc(CCCOCc2cccc4c2n(C)c(=O)n4C2CCC(=O)NC2=O)cc1)C3)c1ccc(C(F)(F)P(=O)(OCOC(=O)C(C)(C)C)OCOC(=O)C(C)(C)C)cc1` (stereo partly drawn) [Compound I-5, [([4-[(1E)-1-[[(2S,11S)-2-[[(3S,4R)-1-carbamoyl-4-[[4-(3-[[1-(2,6-dioxopiperidin-3-yl)-3-methyl-2-oxo-1,3-benzodiazol-4-yl]methoxy]propyl)phenyl]methoxy]pentan-3-yl]carbamoyl]-12-oxo-1-azatricyclo[6.4.1.0^[4,13]]trideca-4(13),5,7-trien-11-yl]carbamoyl]prop-1-en-2-yl]phenyl]difluoromethyl([(2,2-dimethylpropanoyl)oxy]methoxy)phosphoryl)oxy]methyl 2,2-dimethylpropanoate], which DC50 is on record?
A: The DC50 was greater than 30 µM.

Q: How did the DC50 turn out when `C/C(=C\C(=O)N[C@H]1CCc2cccc3c2N(C1=O)[C@H](C(=O)N[C@@H](CCC(N)=O)[C@@H](C)OCc1ccc(CCCCCc2cccc4c2n(C)c(=O)n4C2CCC(=O)NC2=O)cc1)C3)c1ccc(C(F)(F)P(=O)(OCOC(=O)C(C)(C)C)OCOC(=O)C(C)(C)C)cc1` (stereo partly drawn) [Compound I-6, [([4-[(1E)-1-[[(2S,11S)-2-[[(3S,4R)-1-carbamoyl-4-[(4-[5-[1-(2,6-dioxopiperidin-3-yl)-3-methyl-2-oxo-1,3-benzodiazol-4-yl]pentyl]phenyl)methoxy]pentan-3-yl]carbamoyl]-12-oxo-1-azatricyclo[6.4.1.0^[4,13]]trideca-4(13),5,7-trien-11-yl]carbamoyl]prop-1-en-2-yl]phenyl]difluoromethyl([(2,2-dimethylpropanoyl)oxy]methoxy)phosphoryl)oxy]methyl 2,2-dimethylpropanoate] was run?
A: The DC50 was greater than 30 µM.

Q: Which DC50 does the source give for `C/C(=C\C(=O)N[C@H]1CCc2cccc3c2N(C1=O)[C@H](C(=O)N[C@@H](CCC(N)=O)[C@@H](C)OCc1ccc(CCCC(=O)N[C@H](C(=O)N2C[C@H](O)C[C@H]2C(=O)NCc2ccc(-c4scnc4C)cc2)C(C)(C)C)cc1)C3)c1ccc(C(F)(F)P(=O)(OCOC(=O)C(C)(C)C)OCOC(=O)C(C)(C)C)cc1` [Compound I-7] here?
A: The DC50 was less than 30 µM.

Q: For `C/C(=C\C(=O)N[C@H]1CCc2cccc3c2N(C1=O)[C@H](C(=O)N[C@@H](CCC(N)=O)[C@@H](C)OCc1ccc(CCCCC(=O)N[C@H](C(=O)N2C[C@H](O)C[C@H]2C(=O)NCc2ccc(-c4scnc4C)cc2)C(C)(C)C)cc1)C3)c1ccc(C(F)(F)P(=O)(OCOC(=O)C(C)(C)C)OCOC(=O)C(C)(C)C)cc1` [Compound I-8, (2S,4R)-1-[(2S)-2-[5-[4-([[(2R,3S)-3-[[(2S,11S)-11-amino-12-oxo-1-azatricyclo[6.4.1.0^[4,13]]trideca-4(13),5,7-trien-2-l]formamido]-5-carbamoylpentan-2-yl]oxy]methyl)phenyl]pentanamido]-3,3-dimethylbutanoyl]-4-hydroxy-N-[[4-(4-methyl-1,3-thiazol-5-yl)phenyl]methyl]pyrrolidine-2-carboxamide], which DC50 is on record?
A: Its DC50 is less than 30 µM.

Q: For `C/C(=C\C(=O)N[C@H]1CCc2cccc3c2N(C1=O)[C@H](C(=O)N[C@@H](CCC(N)=O)[C@@H](C)OCc1ccc(CCOCCCc2cccc4c2n(C)c(=O)n4C2CCC(=O)NC2=O)cc1)C3)c1ccc(C(F)(F)P(=O)(OCOC(=O)C(C)(C)C)OCOC(=O)C(C)(C)C)cc1` (stereo partly drawn) [Compound I-9, [([4-[(1E)-1-[[(2S,11S)-2-[[(3S,4R)-1-carbamoyl-4-[[4-(2-[3-[1-(2,6-dioxopiperidin-3-yl)-3-methyl-2-oxo-1,3-benzodiazol-4-yl]propoxy]ethyl)phenyl]methoxy]pentan-3-yl]carbamoyl]-12-oxo-1-azatricyclo[6.4.1.0^[4,13]]trideca-4(13),5,7-trien-11-yl]carbamoyl]prop-1-en-2-yl]phenyl]difluoromethyl([(2,2-dimethylpropanoyl)oxy]methoxy)phosphoryl)oxy]methyl 2,2-dimethylpropanoate], which DC50 is on record?
A: The DC50 was greater than 30 µM.

Q: For `C/C(=C\C(=O)N[C@H]1CCc2cccc3c2N(C1=O)[C@H](C(=O)N[C@@H](CCC(N)=O)[C@@H](C)OCc1ccc(CCCOCCCc2cccc4c2n(C)c(=O)n4C2CCC(=O)NC2=O)cc1)C3)c1ccc(C(F)(F)P(=O)(OCOC(=O)C(C)(C)C)OCOC(=O)C(C)(C)C)cc1` (stereo partly drawn) [Compound I-10, [([4-[(1E)-1-[[(2S,11S)-2-[[(3S,4R)-1-carbamoyl-4-[[4-(3-[3-[1-(2,6-dioxopiperidin-3-yl)-3-methyl-2-oxo-1,3-benzodiazol-4-yl]propoxy]propyl)phenyl]methoxy]pentan-3-yl]carbamoyl]-12-oxo-1-azatricyclo[6.4.1.0^[4,13]]trideca-4(13),5,7-trien-11-yl]carbamoyl]prop-1-en-2-yl]phenyl]difluoromethyl([(2,2-dimethylpropanoyl)oxy]methoxy)phosphoryl)oxy]methyl 2,2-dimethylpropanoate], which DC50 is on record?
A: The DC50 was greater than 30 µM.

Q: Which DC50 does the source give for `C/C(=C\C(=O)N[C@H]1CCc2cccc3c2N(C1=O)[C@H](C(=O)N[C@@H](CCC(N)=O)[C@@H](C)OCc1ccc(C(=O)N[C@H](C(=O)N2C[C@H](O)CC2C(=O)NCc2ccc(-c4scnc4C)cc2)C(C)(C)C)cc1)C3)c1ccc(C(F)(F)P(=O)(OCOC(=O)C(C)(C)C)OCOC(=O)C(C)(C)C)cc1` (stereo partly drawn) [Compound I-11] here?
A: The DC50 was greater than 30 µM.

Q: For `C/C(=C\C(=O)N[C@H]1CCc2cccc3c2N(C1=O)[C@H](C(=O)N[C@@H](CCC(N)=O)[C@@H](C)OCc1ccc(CCC(=O)N[C@H](C(=O)N2C[C@H](O)CC2C(=O)NCc2ccc(-c4scnc4C)cc2)C(C)(C)C)cc1)C3)c1ccc(C(F)(F)P(=O)(OCOC(=O)C(C)(C)C)OCOC(=O)C(C)(C)C)cc1` (stereo partly drawn) [Compound I-12], which DC50 is on record?
A: The DC50 was greater than 30 µM.

Q: `C/C(=C\C(=O)N[C@H]1CCc2cccc3c2N(C1=O)[C@H](C(=O)N[C@@H](CCC(N)=O)[C@@H](C)OCc1ccc(CCCOCCOCCOCCOc2cc(-c4scnc4C)ccc2CNC(=O)[C@@H]2C[C@@H](O)CN2C(=O)[C@@H](NC(=O)C2(F)CC2)C(C)(C)C)cc1)C3)c1ccc(C(F)(F)P(=O)(OCOC(=O)C(C)(C)C)OCOC(=O)C(C)(C)C)cc1` [Compound I-17] was tested. Which DC50 did it give?
A: The DC50 was greater than 30 µM.

Q: How did the DC50 turn out when `C/C(=C\C(=O)N[C@H]1CCc2cccc3c2N(C1=O)[C@H](C(=O)N[C@@H](CCC(N)=O)[C@@H](C)OCc1ccc(CCCCOCC(=O)N[C@H](C(=O)N2C[C@@H](O)C[C@H]2C(=O)NCc2ccc(-c4scnc4C)cc2)C(C)(C)C)cc1)C3)c1ccc(C(F)(F)P(=O)(OCOC(=O)C(C)(C)C)OCOC(=O)C(C)(C)C)cc1` [Compound I-21] was run?
A: Its DC50 is greater than 30 µM.

Q: Which DC50 does the source give for `C/C(=C\C(=O)N[C@H]1CCc2cccc3c2N(C1=O)[C@H](C(=O)N[C@@H](CCC(N)=O)[C@@H](C)OCc1ccc(CCCCOc2cc(-c4scnc4C)ccc2CNC(=O)[C@@H]2C[C@@H](O)CN2C(=O)[C@@H](NC(=O)C2(F)CC2)C(C)(C)C)cc1)C3)c1ccc(C(F)(F)P(=O)(OCOC(=O)C(C)(C)C)OCOC(=O)C(C)(C)C)cc1` [Compound I-26] here?
A: Its DC50 is greater than 10 µM.

Q: How did the DC50 turn out when `C/C(=C\C(=O)N[C@H]1CCc2cccc3c2N(C1=O)[C@H](C(=O)N[C@@H](CCC(N)=O)[C@@H](C)OCc1ccc(CCOCCOCCOCCOCC(=O)N[C@H](C(=O)N2C[C@H](O)C[C@H]2C(=O)NCc2ccc(-c4scnc4C)cc2)C(C)(C)C)cc1)C3)c1ccc(C(F)(F)P(=O)(OCOC(=O)C(C)(C)C)OCOC(=O)C(C)(C)C)cc1` [Compound I-27] was run?
A: The DC50 was greater than 10 µM.

Q: For `C/C(=C\C(=O)N[C@H]1CCc2cccc3c2N(C1=O)[C@H](C(=O)N[C@@H](CCC(N)=O)[C@@H](C)OCc1ccc(CCCCCCC(=O)N[C@H](C(=O)N2C[C@H](O)C[C@H]2C(=O)NCc2ccc(-c4scnc4C)cc2)C(C)(C)C)cc1)C3)c1ccc(C(F)(F)P(=O)(OCOC(=O)C(C)(C)C)OCOC(=O)C(C)(C)C)cc1` [Compound I-28], which DC50 is on record?
A: The DC50 was less than 30 µM.
